According to patent US20220362177A1, “CERAMIDE RATIOS AS PREDICTIVE AND THERAPEUTIC BIOMARKERS FOR LEUKEMIAS” (University of Virginia Patent Foundation, priority 2019, published 2022):

What was measured:
MOLM-14 = assay: MTS cell viability assay; format: cell-based; conditions: MOLM-14, ceramides for 24 hours, with CNL
Description: FIG. 4. Ceramide chain length altered biological and biophysical responses. MOLM-14 cells were treated with the indicated ceramides for 24 hours and viability was assessed by MTS.
MTS Cell Viability Assay: Cytotoxicity of nanoliposomal ceramide in AML cells was measured by plating 15,000 cells/well into 96-well plates followed by growth for 24 hours in a humidified 37° C. cell culture incubator in the presence of ghost liposomes, CNL or other drugs for 24 hours in 10% serum medium. After 24 h, MTS/PMS mixture was added and adsorption was read at 560 nm using Bio-Tek plate reader.
Cell viability MTS assays were performed in three AML cells lines: OCI-AML2, KG-1, AND MOLM-14 to determine their sensitivities to co-treatment with CNL, Ara-C, and Venetoclax. Table 1 summarized these cell lines, their sources, and the known driver mutations that are present in the cell lines. The cells lines were treated with concentrations that had been determined to be less than the EC50 so any synergistic or additive effects could be observed.

Survivin = assay: Western blot of treated MOLM-14 cells; format: cell-based; conditions: MOLM-14, 24 hours, independently
Description: (§1) FIGS. 7A-7I. CAV treatment alters expression of genes involved in cell survival relevant to AraC and Venetoclax resistance mechanism. MOLM-14 cells were treated with the listed conditions for 24 hours and protein harvested. Western blots were performed and quantitated via densitometry. Representative blots are shown in FIG. 7A and quantification in FIGS. 7B-7I. *: significant to Vehicle.
(§2) Western blotting: Whole cell lysates were prepared by dissolving cells in FOCUS™ Extraction Buffer III (G-Biosciences, St. Louis, Mo., United States of America; Catalog No. 786-222) containing protease inhibitors (Thermo Fisher Scientific Catalog No. A32955) for 10-15 minutes on ice with occasional shaking. After centrifugation for 15 minutes at 13-14000×g at 10° C. supernatants were mixed with one-third of a volume of NUPAGE™ LDS 4× Sample Buffer (Thermo Fisher Scientific) containing 5% 2-mercaptoethanol. Protein samples were prepared by heating at 37° C. for 10 min after the addition of denaturing sample buffer. Proteins were separated using SDS-PAGE on a 4-12% gel (Thermo Fisher Scientific) and transferred to Immobilon membrane (Bio-Rad). […]

XIAP = assay: Western blot of treated MOLM-14 cells; format: cell-based; conditions: MOLM-14, 24 hours
Description: as §1, §2

Mcl-1 = assay: Western blot of treated MOLM-14 cells; format: cell-based; conditions: MOLM-14, 24 hours
Description: After centrifugation for 15 minutes at 13-14000×g at 10° C. supernatants were mixed with one-third of a volume of NUPAGE™ LDS 4× Sample Buffer (Thermo Fisher Scientific) containing 5% 2-mercaptoethanol. Protein samples were prepared by heating at 37° C. for 10 min after the addition of denaturing sample buffer. […] Primary and secondary antibodies were to diluted in 0.05% TBS/Tween-20 containing 0.05% Casein Blocker. Protein bands were visualized using a commercially available chemiluminescence kit (Thermo Fisher Scientific) or by infrared laser scanner using ChemiXX6 G:box imager (Syngene, Frederick, Md., United States of America).

C1498 AML cells = assay: Syngeneic C1498-luc AML model in C57BL/6J mice; format: in vivo, mouse
Description: FIG. 8C: Survival of C1498-bearing C57BL/6J mice were treated with either Control (Lip-Ghost), CNL (31.2 mg/kg), Cytarabine (75 mg/kg) or CNL+Cytarabine.
We initially utilized the immune-compromised NRG mice engrafted with MOLM-13 cells expressing luciferase. Mice were engrafted, treated with the various drug combinations, and disease burden measured by live animal luminescence and Kaplan-Meier curve. […] C1498 cells are a de novo AML cell line from a C57-blkJ mouse. […] Given this, no Venetoclax groups were included. C57-blkJ mice were injected with C1498 AML cells transduced to express luciferase.

ceramide levels = assay: Lipidomics (LC/MS) of ceramide levels in treated cells; format: cell-based; conditions: 24 hrs
Description: Lipidomics: Lipids were extracted from cell lysates and analyzed on an Acquity I-Class/Xevo TQ-S Micro IVD System (Waters Corporation, Milford, Mass., United States of America) as described previously (Pearson et al. (2020) Ceramide Analogue SACLAC Modulates Sphingolipid Levels and MCL-1 Splicing to Induce Apoptosis in Acute Myeloid Leukemia. Mol Cancer Res 18(3):352-363). Mass spectrometry peaks were compared to internal standards, and all data are represented as picomoles of lipid per milligram of protein.
To determine potential metabolic mechanism underlying the efficacy of combinatorial CNL/AraC/Venetoclax (CAV) treatment, lipids were harvested to measure the effect of Venetoclax and AraC upon CNL metabolism by LC/MS. Cells were treated individually or in combination with CNL, Ara-C, and/or Venetoclax for 24 hrs. […] This lead to an increase in the C16/C24 ratio, which might support a pro-mitogenic response (FIG. 6H).

AML cells = conditions: recent studies by others; cited from earlier work

Q: For `CCCCCCCCCCCCC/C=C/[C@@H](O)[C@H](CO)NC(=O)CCCCCCCCCCCCCCCCCCCCCCC` [C24 ceramide], which “potentiation of CNL-induced cell death” value (MOLM-14) is on record?
A: not

Q: With `Nc1ccn([C@@H]2O[C@H](CO)[C@@H](O)[C@@H]2O)c(=O)n1` [AraC, cytarabine] as the compound, how does the Survivin expression levels (Survivin) read?
A: increased expression levels

Q: What about the XIAP expression (XIAP) of the same compound?
A: not

Q: What about the Mcl-1 expression (Mcl-1) of the same compound?
A: not

Q: And the median survival time (C1498 AML cells; C1498-bearing C57BL/6J mice, CNL 31.2 mg/kg, Cytarabine 75 mg/kg, treated 7 days)?
A: 41 days

Q: And the “survival” value (C1498 AML cells; C1498 model, single agent)?
A: moderate increase in survival

Q: And the ceramide levels (ceramide levels; single agent)?
A: significantly elevated

Q: And the ceramide levels (ceramide levels; with co-treatment of CNL)?
A: raise ceramide levels

Q: With `CCCCCCCCc1ccc(CCC(N)(CO)CO)cc1` [FTY720] as the compound, how does the “apoptosis / death of AML cells” value (AML cells) read?
A: rapidly induced ceramide-mediated apoptosis

Q: With `CCCCCCCCCCCCC/C=C/[C@@H](O)[C@H](CO)NC(=O)CCCCCCCCCCCCCCC` [C16 ceramide] as the compound, how does the “potentiation of CNL-induced cell death” value (MOLM-14) read?
A: potentiated
